# Results: BindingDB's records for doi:10.1016/S0960-894X(00)80067-0 (1994)
# Assay: Compound was tested for inhibition of partially purified squalene epoxidase
row,IC50,Structure (SMILES)
1,500 µM,"CCN(CC=CC#CC(C)(C)C)Cc1cccc(OCc2cc(CO)cc(C3(C(F)(F)F)N=N3)c2)c1 [[3-(3-{[((E)-6,6-Dimethyl-hept-2-en-4-ynyl)-ethyl-amino]-methyl}-phenoxymethyl)-5-(3-trifluoromethyl-3H-diazirin-3-yl)-phenyl]-methanol]"
2,500 µM,"CCN(Cc1cccc(OCc2cc(-c3cccs3)cs2)c1)c1ccc(C(=O)c2ccc(CCl)cc2)cc1 [(4-{[3-([2,3']Bithiophenyl-5'-ylmethoxy)-benzyl]-ethyl-amino}-phenyl)-(4-chloromethyl-phenyl)-methanone]"
3,500 µM,"CCN(Cc1cccc(OCc2cc(-c3cccs3)cs2)c1)c1cc(O)cc(C2(C(F)(F)F)N=N2)c1 [3-{[3-([2,3']Bithiophenyl-5'-ylmethoxy)-benzyl]-ethyl-amino}-5-(3-trifluoromethyl-3H-diazirin-3-yl)-phenol]"
